Experimental data published in PMC5632533, “Mechanisms of action and in vivo antibacterial efficacy assessment of five novel hybrid peptides derived from Indolicidin and Ranalexin against Streptococcus pneumoniae” (PeerJ, 2017).

Legend:
ICR (CD-1) mice = assay: In vivo toxicity in mice (SC, IN, IP routes); design: Aspartate aminotransferase, AST / Alanine transaminase, ALT / Alkaline phosphatase, ALP / Creatinine / Urea / Total bilirubin: unit not given here; conditions: for Eosinophil / Erythrocytes, RBC / Granulocytes / Hematocrit, HCT / Hemoglobin Hgb / Lymphocytes / Mean corpuscular haemoglobin concentration, MCHC / Mean corpuscular haemoglobin, MCH / Monocytes / White blood cells, WBC / platelet Counts, PLT / Mean corpuscular volume, MCV / Alanine transaminase, ALT / Alkaline phosphatase, ALP / Aspartate aminotransferase, AST / Creatinine / Total bilirubin / Urea: 3 doses (1hr, 12hr, 24hr), RN7-IN9, RN7-IN6 10 mg/kg, day 7, mean±SD, 4 mice; for maximum IP dose at which no signs of stress or abnormal behavior were evident (non-toxic dose): doses at 1 h, 12 h, 24 h, no death up to seven days; for Alanine transaminase, ALT / Alkaline phosphatase, ALP / Aspartate aminotransferase, AST / Creatinine / Total bilirubin / Urea: serum
Method: In this study, 4-week old male, pathogen free ICR (CD-1) mice were purchased from InVivos (Lim Chu Kang, Singapore) and used to assess the in vivo toxicity and antibacterial efficacy of the novel peptides, as these animals are by far the most commonly used model for the study of pneumococcal disease ([Chiavolini, Pozzi & Ricci, 2008]). The mice were kept in ventilated polycarbonate cages (12 h light/dark cycle, 20 ± 2 °C and 55% relative humidity). All mice were familiarized for seven days before any experimental procedure and were given unlimited pellets and water ad libitum. All animal experimentations were conducted according to the guidelines approved by Faculty of Medicine Institutional Animal Care and Use Committee (FOM IACUC), University of Malaya (ethics Reference no. : 2013-07-15/MMBTR/SDS).
In order to evaluate the possible toxic effects correlated to peptides administered in mice, four hybrid peptides RN7-IN10, RN7-IN9, RN7-IN8 and RN7-IN6 were chosen for in vivo toxicity assessment, due to their promising in vitro antibacterial activity ([Jindal et al., 2015]). Mice were separated into four groups (each with four mice) and were injected with respective peptides at 1 h, 12 h, and 24 h (three-dose regimen) via IP, SC, and IN administration routes. The hybrid peptides were first administered at high doses (100 mg/kg for IP route, 100 mg/kg for SC routes and 20 mg/kg for IN route). Any abnormal behavior was recorded and survival of mice was noted as well. In case adverse effects such as high physical stress, severe lethargy, physical inactiveness, and/or death were detected, lower graded doses were given. All the administered mice were monitored for seven days or until death occurred. At day seven post administration, all animals were sacrificed and blood and organs were collected. Untreated mice were used as a control group.
Mice used to evaluate the in vivo toxicity and antibacterial activity of the hybrid peptides using the subcutaneous (SC) and intranasal (IN) administration routes, were anesthetized using a combination of a standard dose of xylazine (ilium xylazil-20, 10 mg/kg) and ketamine (Narketan®-10, 100 mg/kg) through intraperitoneal (IP) injection. After seven days of treatment, the in vivo toxicity and antibacterial efficacy experiments were ended and the surviving mice were anesthetized. Blood samples for Hematological and biochemical analysis were collected via cardiac puncture using a 25G syringe (BD bioscience, San Jose, CA, USA). Whole blood for heamatological analysis was collected in 500 µl dipotassium EDTA microtainer tubes (BD Bioscience, USA). About 500 µl of blood collected an eppedorff tube and centrifuged at 8000 rpm for 5 min and then the serum was transferred into a new 1.5 ml tube for biochemistry analysis. The mice were then euthanized by cervical dislocation, dissected and the following organs were collected for histopathology evaluation: lung, kidney, brain, liver and spleen.
For whole blood analysis, the parameters were number of red cells (RBC), number of white cells (WBC), lymphocytes, monocytes, eosinophil, granulocytes, haemoglobin (Hgb), mean corpuscular volume (MCV), hematocrit (HCT), platelet Counts (PLT), Mean corpuscular haemoglobin (MCH) and corpuscular haemoglobin concentration (MCHC). For biochemistry analysis, the parameters were alanine transaminase (ALT), creatinine, alkaline phosphatase (ALP), aspartate aminotransferase (AST), total bilirubin and urea.
The following organs were collected from all the dissected mice: lung, kidney, brain, spleen, and liver. All tissues were fixed in 10% (v/v) buffered formalin and processed for paraffin embedding. Hematoxylin–eosin (HE) was used to stain the histological sections at the histopathology laboratory, Veterinary Laboratory Service Unit, University Putra Malaysia (UPM).

Streptococcus pneumoniae = conditions: 30 pneumococcal clinical isolates; earlier study; ref Jindal et al., 2015; cited from earlier work
Source text: Table 1 Sequences and physicochemical properties of the template and hybrid AMPs. | column: MIC^a || One of the advantageous alternatives to today’s antibiotics is antimicrobial peptides (AMPs) ([Deslouches et al., 2013]; [Sánchez-Vásquez et al., 2013]). AMPs are synthesized by almost all living beings as the first line of defense in their immune system against microbial infection. Many aspects favor AMPs over traditional antibiotics: a broad range of antimicrobial activity against pathogenic micro-organisms (including viruses, parasites, bacteria, and fungi), microbial pathogens are less efficient in developing resistance against AMPs, as killing take place in a short contact time and AMPs c ...

[1] = IN, head doses: RN7-IN10, RN7-IN8 20 mg/kg
[2] = SC, head doses: RN7-IN10, RN7-IN8 20 mg/kg

## FLGGLIKKWPWWPWRR-NH2 [RN7-IN9, hybrid peptide of ranalexin (residues 1-7) and indolicidin (residues 5-13)]
ICR (CD-1) mice; [1]
  Eosinophil: 3.2±1.2%
  Erythrocytes, RBC: 9.36±0.9 10^6/mm^3
  Granulocytes: 56.2±10.81%
  Hematocrit, HCT: 46.82±4.23%
  Hemoglobin Hgb: 14.9 ± 1.32 g/dL
  Lymphocytes: 41.27±10.56%
  Mean corpuscular haemoglobin concentration, MCHC: 31.85 ± 0.17 g/dL
  Mean corpuscular haemoglobin, MCH: 15.95 ± 0.33 pg
  Monocytes: 2.52±0.27%
  White blood cells, WBC: 5.2±2.35 10^3/mm^3
  platelet Counts, PLT: 656.75±76.9 10^3/mm^3
  Alanine transaminase, ALT: 41.22±15.75
  Alkaline phosphatase, ALP: 127.75±6.07
  Aspartate aminotransferase, AST: 141.2±23.08
  Creatinine: 37.66±1.26
  Total bilirubin: 2.01±0.27
  Urea: 9.6±1.02
ICR (CD-1) mice; IP, RN7-IN10, RN7-IN8 20 mg/kg
  Eosinophil: 3.95±2.56%
  Erythrocytes, RBC: 8.06±1.04 10^6/mm^3
  Granulocytes: 53.02±4.07%
  Hematocrit, HCT: 41.42±5.25%
  Hemoglobin Hgb: 13.9 ± 1.67 g/dL
  Mean corpuscular haemoglobin concentration, MCHC: 33.63 ± 0.34 g/dL
  Mean corpuscular haemoglobin, MCH: 17.25 ± 0.78 pg
  Mean corpuscular volume, MCV: 51.5±2.64 µm^3
  Monocytes: 2.47±0.25%
  White blood cells, WBC: 3.7±1.54 10^3/mm^3
  platelet Counts, PLT: 674±118.72 10^3/mm^3
  Alanine transaminase, ALT: 51.54±5.83
  Aspartate aminotransferase, AST: 172.33±26.35
  Creatinine: 37.3±3.51
  Total bilirubin: 1.9±0.02
  Urea: 10.56±5.2
ICR (CD-1) mice; IP
  maximum IP dose at which no signs of stress or abnormal behavior were evident (non-toxic dose): 10 mg/kg
ICR (CD-1) mice; [2]
  Eosinophil: 2.77±0.54%
  Erythrocytes, RBC: 9.22±0.98 10^6/mm^3
  Granulocytes: 55.55±4.52%
  Hematocrit, HCT: 46.15±5.19%
  Hemoglobin Hgb: 15.75 ± 1.4 g/dL
  Lymphocytes: 46.47±5.48%
  Mean corpuscular haemoglobin concentration, MCHC: 34.2 ± 1.37 g/dL
  Mean corpuscular haemoglobin, MCH: 17.1 ± 0.53 pg
  Mean corpuscular volume, MCV: 51±1.82 µm^3
  Monocytes: 1.95±0.1%
  White blood cells, WBC: 4.32±0.55 10^3/mm^3
  platelet Counts, PLT: 449.75±100.23 10^3/mm^3
  Alanine transaminase, ALT: 43.17±13.81
  Alkaline phosphatase, ALP: 131.25±19.7
  Aspartate aminotransferase, AST: 188.33±11.22
  Creatinine: 35±1.27
  Total bilirubin: 2.2±0.13
  Urea: 8.84±1.04
Streptococcus pneumoniae
  MIC, minimum inhibitory concentration: 7.81 to 15.62 µg/mL

## FLGGLIKWKWPWWPWRR-NH2 [RN7-IN10, hybrid peptide of ranalexin (residues 1-7) and indolicidin (residues 4-13)]
ICR (CD-1) mice; [1]
  Eosinophil: 2.7±0.97%
  Erythrocytes, RBC: 9.62±0.79 10^6/mm^3
  Granulocytes: 66.6±21.64%
  Hematocrit, HCT: 47.95±3.18%
  Hemoglobin Hgb: 15.47 ± 1.07 g/dL
  Lymphocytes: 58.5±7.53%
  Mean corpuscular haemoglobin concentration, MCHC: 28.3 ± 8.15 g/dL
  Mean corpuscular haemoglobin, MCH: 20 ± 7.87 pg
  Mean corpuscular volume, MCV: 50.75±1.7 µm^3
  Monocytes: 2.2±0.37%
  White blood cells, WBC: 5.2±1.44 10^3/mm^3
  platelet Counts, PLT: 619.5±100.42 10^3/mm^3
  Alanine transaminase, ALT: 66.9±17.02
  Alkaline phosphatase, ALP: 133.3±10.1
  Aspartate aminotransferase, AST: 172±8.78
  Creatinine: 40.94±0.83
  Total bilirubin: 2.15±0.14
  Urea: 9.3±1.68
ICR (CD-1) mice; IP, RN7-IN10, RN7-IN8 20 mg/kg
  Eosinophil: 2.23±1.61%
  Erythrocytes, RBC: 9.16±0.92 10^6/mm^3
  Granulocytes: 46.27±16.41%
  Hematocrit, HCT: 47.67±5.6%
  Hemoglobin Hgb: 15.85 ± 1.27 g/dL
  Lymphocytes: 51.03±16.69%
  Mean corpuscular haemoglobin concentration, MCHC: 33.85 ± 0.60 g/dL
  Mean corpuscular haemoglobin, MCH: 17.6 ± 0.46 pg
  Mean corpuscular volume, MCV: 50.75±2.06 µm^3
  Monocytes: 2.8±0.5%
  White blood cells, WBC: 4.2±0.55 10^3/mm^3
  platelet Counts, PLT: 535±150.11 10^3/mm^3
  Alanine transaminase, ALT: 52.76±12.22
  Alkaline phosphatase, ALP: 124.33±10.6
  Aspartate aminotransferase, AST: 181.66±38.27
  Creatinine: 38.1±6.97
  Total bilirubin: 1.82±0.03
  Urea: 9.6±2.11
ICR (CD-1) mice; IP
  maximum IP dose at which no signs of stress or abnormal behavior were evident (non-toxic dose): 20 mg/kg
ICR (CD-1) mice; [2]
  Eosinophil: 2.82±0.25%
  Erythrocytes, RBC: 8.04±1.18 10^6/mm^3
  Hematocrit, HCT: 41.5±3.7%
  Hemoglobin Hgb: 13.75 ± 1.77 g/dL
  Lymphocytes: 52.2±3.3%
  Mean corpuscular haemoglobin concentration, MCHC: 34.45 ± 1.35 g/dL
  Mean corpuscular haemoglobin, MCH: 17.08 ± 0.4 pg
  Mean corpuscular volume, MCV: 50±2.16 µm^3
  Monocytes: 2.2±0.28%
  White blood cells, WBC: 3.8±0.2 10^3/mm^3
  platelet Counts, PLT: 568.75±81.73 10^3/mm^3
  Alanine transaminase, ALT: 51.25±11.9
  Aspartate aminotransferase, AST: 175±25.41
  Creatinine: 37.8±3.43
  Total bilirubin: 2.1±0.35
  Urea: 9.2±0.8
Streptococcus pneumoniae
  MIC, minimum inhibitory concentration: 7.81 to 15.62 µg/mL
